Tested on: MV-4-11 cells
Test: Gene expression microarray analysis (Affymetrix PrimeView) and GSEA
Type: cell-based, human
Design: RFU PODN (11730768_x_at) / Fold change /veh PODN (11730768_x_at) / RFU LINC00158 (11744669_a_at) / Fold change /veh LINC00158 (11744669_a_at) / RFU DUSP10 (11751237_a_at) / Fold change /veh DUSP10 (11751237_a_at) / RFU ID3 (11757404_x_at) / Fold change /veh ID3 (11757404_x_at) / RFU PLEKHG5 (11737974_s_at) / Fold change /veh PLEKHG5 (11737974_s_at) / RFU LRRC4B (11730491_at) / Fold change /veh LRRC4B (11730491_at) / RFU GIMAP4 (11747438_a_at) / Fold change /veh GIMAP4 (11747438_a_at) / RFU KRT8 (11758183_x_at) / Fold change /veh KRT8 (11758183_x_at) / RFU CNN1 (11734310_a_at) / Fold change /veh CNN1 (11734310_a_at) / RFU VPS37D (11726825_at) / Fold change /veh VPS37D (11726825_at) / RFU C10orf10 (11716522_x_at) / Fold change /veh C10orf10 (11716522_x_at) / RFU KIR2DL2 /// KIR2DL4 /// KIR2DL5A /// KIR2DL5B /// KIR2DS1 /// KIR2DS2 /// KIR2DS3 /// KIR2DS4 /// KIR3DL3 /// KIR3DL3 /// KIR3DS1 (11738374_at) / Fold change /veh KIR2DL2 /// KIR2DL4 /// KIR2DL5A /// KIR2DL5B /// KIR2DS1 /// KIR2DS2 /// KIR2DS3 /// KIR2DS4 /// KIR3DL3 /// KIR3DL3 /// KIR3DS1 (11738374_at) / RFU C1QL1 (11718748_at) / Fold change /veh C1QL1 (11718748_at) / RFU TMPRSS4 (11747572_a_at) / Fold change /veh TMPRSS4 (11747572_a_at) / RFU HAMP (11756126_x_at) / Fold change /veh HAMP (11756126_x_at) / RFU RNFT2 (11725882_a_at) / Fold change /veh RNFT2 (11725882_a_at) / RFU NR4A2 (11747474_a_at) / Fold change /veh NR4A2 (11747474_a_at) / RFU ABCC12 (11746883_a_at) / Fold change /veh ABCC12 (11746883_a_at) / RFU TMEM136 (11760407_x_at) / Fold change /veh TMEM136 (11760407_x_at) / RFU CLDN22 /// WWC2 (11732394_at) / Fold change /veh CLDN22 /// WWC2 (11732394_at) / RFU HLA-DPB1 (11760878_x_at) / Fold change /veh HLA-DPB1 (11760878_x_at) / RFU SPINT1 (11716480_a_at) / Fold change /veh SPINT1 (11716480_a_at) / RFU GAP43 (11754022_s_at) / Fold change /veh GAP43 (11754022_s_at) / RFU A4GNT (11735810_at) / Fold change /veh A4GNT (11735810_at) / RFU PRB3 (11715151_x_at) / Fold change /veh PRB3 (11715151_x_at) / RFU TUBB4B (11761932_at) / Fold change /veh TUBB4B (11761932_at) / RFU CAPN14 (11732068_a_at) / Fold change /veh CAPN14 (11732068_a_at) / RFU TMCC2 (11721928_a_at) / Fold change /veh TMCC2 (11721928_a_at) / RFU IRGQ (11745062_a_at) / Fold change /veh IRGQ (11745062_a_at) / RFU FAM174B (11720279_a_at) / Fold change /veh FAM174B (11720279_a_at) / RFU TMPRSS4 (11748680_a_at) / Fold change /veh TMPRSS4 (11748680_a_at) / RFU FAM212B (11763350_a_at) / Fold change /veh FAM212B (11763350_a_at) / RFU PLEKHG5 (11743358_a_at) / Fold change /veh PLEKHG5 (11743358_a_at) / RFU ZSCAN30 (11745921_a_at) / Fold change /veh ZSCAN30 (11745921_a_at) / RFU CMKLR1 (11741424_a_at) / Fold change /veh CMKLR1 (11741424_a_at) / RFU LOC101060620 /// MAPK8IP1 (11723275_at) / Fold change /veh LOC101060620 /// MAPK8IP1 (11723275_at) / RFU SPTSSB (11747773_x_at) / Fold change /veh SPTSSB (11747773_x_at) / RFU PRSS12 (11739890_at) / Fold change /veh PRSS12 (11739890_at) / RFU BIN1 (11741810_x_at) / Fold change /veh BIN1 (11741810_x_at) / RFU WNT11 (11732464_a_at) / Fold change /veh WNT11 (11732464_a_at) / RFU C10orf10 (11716521_a_at) / Fold change /veh C10orf10 (11716521_a_at) / RFU C5orf56 (11738089_at) / Fold change /veh C5orf56 (11738089_at) / RFU CYB561 (11721691_x_at) / Fold change /veh CYB561 (11721691_x_at) / RFU ANKRD19P (11752326_a_at) / Fold change /veh ANKRD19P (11752326_a_at) / RFU OR2T12 /// OR2T33 /// OR2T8 (11738714_s_at) / Fold change /veh OR2T12 /// OR2T33 /// OR2T8 (11738714_s_at) / RFU VCAN (11748164_a_at) / Fold change /veh VCAN (11748164_a_at) / RFU JSRP1 (11732532_at) / Fold change /veh JSRP1 (11732532_at) / RFU KRTAP10-11 (11738290_x_at) / Fold change /veh KRTAP10-11 (11738290_x_at) / RFU MYO3A (11730013_a_at) / Fold change /veh MYO3A (11730013_a_at) / RFU EBF3 (11725865_a_at) / Fold change /veh EBF3 (11725865_a_at) / RFU CAMK2N1 (11719241_x_at) / Fold change /veh CAMK2N1 (11719241_x_at) / RFU C5orf56 (11738088_a_at) / Fold change /veh C5orf56 (11738088_a_at) / RFU OLFML3 (11715873_a_at) / Fold change /veh OLFML3 (11715873_a_at) / RFU LOC100653217 /// NTM (11731650_a_at) / Fold change /veh LOC100653217 /// NTM (11731650_a_at) / RFU MAPK11 (11762145_a_at) / Fold change /veh MAPK11 (11762145_a_at) / RFU FIZ1 (11724087_x_at) / Fold change /veh FIZ1 (11724087_x_at) / RFU OASL (11726364_x_at) / Fold change /veh OASL (11726364_x_at) / RFU SOX15 (11748057_x_at) / Fold change /veh SOX15 (11748057_x_at) / RFU CD79A (11719716_a_at) / Fold change /veh CD79A (11719716_a_at) / RFU HIST1H1D (11736915_at) / Fold change /veh HIST1H1D (11736915_at) / RFU CASKIN2 (11723855_a_at) / Fold change /veh CASKIN2 (11723855_a_at) / RFU LOC730098 (11760151_x_at) / Fold change /veh LOC730098 (11760151_x_at) / RFU OR4N2 (11742367_at) / Fold change /veh OR4N2 (11742367_at) / RFU PRRT2 (11749266_a_at) / Fold change /veh PRRT2 (11749266_a_at) / RFU SNX32 (11753110_a_at) / Fold change /veh SNX32 (11753110_a_at) / RFU CDHR5 (11726645_a_at) / Fold change /veh CDHR5 (11726645_a_at) / RFU RCAN1 (11760418_a_at) / Fold change /veh RCAN1 (11760418_a_at) / RFU FAM167A (11723789_a_at) / Fold change /veh FAM167A (11723789_a_at) / RFU FAM26E (11764081_at) / Fold change /veh FAM26E (11764081_at) / RFU ISYNA1 (11749810_s_at) / Fold change /veh ISYNA1 (11749810_s_at) / RFU ACY1 (11761880_at) / Fold change /veh ACY1 (11761880_at) / RFU 11764098_at / Fold change /veh 11764098_at / RFU SAMD14 (11745864_x_at) / Fold change /veh SAMD14 (11745864_x_at) / RFU NPB (11741838_a_at) / Fold change /veh NPB (11741838_a_at) / RFU TMPRSS6 (11731388_a_at) / Fold change /veh TMPRSS6 (11731388_a_at) / RFU KRTAP10-2 (11738614_at) / Fold change /veh KRTAP10-2 (11738614_at) / RFU ARHGAP8 /// PRR5-ARHGAP8 (11727945_x_at) / Fold change /veh ARHGAP8 /// PRR5-ARHGAP8 (11727945_x_at) / RFU KRTAP5-7 /// NADSYN1 (11734609_at) / Fold change /veh KRTAP5-7 /// NADSYN1 (11734609_at) / RFU RASL12 (11751679_a_at) / Fold change /veh RASL12 (11751679_a_at) / RFU CDKN2B (11736163_a_at) / Fold change /veh CDKN2B (11736163_a_at) / RFU PRF1 (11729649_at) / Fold change /veh PRF1 (11729649_at) / RFU, ZNF638 /// ZNF638-IT1 / Fold change vs veh, ZNF638 /// ZNF638-IT1 / RFU, PANK3 / Fold change vs veh, PANK3 / RFU, SH3YL1 / Fold change vs veh, SH3YL1 / RFU, ZEB2 / Fold change vs veh, ZEB2 / RFU, NRIP1 / Fold change vs veh, NRIP1 / RFU, PTTG1IP / Fold change vs veh, PTTG1IP / RFU, CAPN2 / Fold change vs veh, CAPN2 / RFU, MED14 / Fold change vs veh, MED14 / RFU, SNORA58 / Fold change vs veh, SNORA58 / RFU, C1orf63 / Fold change vs veh, C1orf63 / RFU, LRRFIP1 / Fold change vs veh, LRRFIP1 / RFU, NDUFAF7 / Fold change vs veh, NDUFAF7 / RFU, SLC12A2 / Fold change vs veh, SLC12A2 / RFU, IBTK / Fold change vs veh, IBTK / RFU, ESF1 / Fold change vs veh, ESF1 / Fold change vs veh, TMEM50B / RFU, TAOK1 / Fold change vs veh, TAOK1 / RFU, ACBD3 / Fold change vs veh, ACBD3 / RFU, TMA16 / Fold change vs veh, TMA16 / RFU, RWDD3 / Fold change vs veh, RWDD3 / RFU, BCAT1 / Fold change vs veh, BCAT1 / RFU, EDEM3 / Fold change vs veh, EDEM3 / RFU, TMEM33 / Fold change vs veh, TMEM33 / RFU, WDR75 / Fold change vs veh, WDR75 / RFU, AHCTF1 / Fold change vs veh, AHCTF1 / RFU, TFRC / Fold change vs veh, TFRC / RFU, ZDHHC17 / Fold change vs veh, ZDHHC17 / RFU, NOM1 / Fold change vs veh, NOM1 / RFU, ARL8B / Fold change vs veh, ARL8B / RFU, ZBTB11 / Fold change vs veh, ZBTB11 / RFU, TAMM41 / Fold change vs veh, TAMM41 / RFU, KIAA1704 /// LOC100996395 / Fold change vs veh, KIAA1704 /// LOC100996395 / RFU, ING1 / Fold change vs veh, ING1 / RFU, TRMT61B / Fold change vs veh, TRMT61B / RFU, FUBP3 / Fold change vs veh, FUBP3 / RFU, TP53 / Fold change vs veh, TP53 / RFU, TNKS2 / Fold change vs veh, TNKS2 / RFU, ZFP14 / Fold change vs veh, ZFP14 / RFU, ACTR2 / Fold change vs veh, ACTR2 / RFU, PPP3R1 / Fold change vs veh, PPP3R1 / RFU, PIK3R1 / Fold change vs veh, PIK3R1 / RFU, HNRNPA1 / Fold change vs veh, HNRNPA1 / RFU, RNF170 / Fold change vs veh, RNF170 / RFU, ZNF28 / Fold change vs veh, ZNF28 / RFU, RNGTT / Fold change vs veh, RNGTT / RFU, OGT / Fold change vs veh, OGT / RFU, BRD1 / Fold change vs veh, BRD1 / RFU, MARS / Fold change vs veh, MARS / RFU, ZNF655 / Fold change vs veh, ZNF655 / RFU, FAHD1 / Fold change vs veh, FAHD1 / RFU, BDP1 / Fold change vs veh, BDP1 / RFU, LRRCC1 / Fold change vs veh, LRRCC1 / RFU, ARID1A / Fold change vs veh, ARID1A / RFU, ZNF146 / Fold change vs veh, ZNF146 / RFU, ZNF330 / Fold change vs veh, ZNF330 / RFU, GPN3 / Fold change vs veh, GPN3 / RFU, C9orf123 / Fold change vs veh, C9orf123 / RFU, N4BP2L2 / Fold change vs veh, N4BP2L2 / RFU, ARFIP1 / Fold change vs veh, ARFIP1 / RFU, FAM179B / Fold change vs veh, FAM179B / RFU, BCL10 / Fold change vs veh, BCL10 / RFU, UHRF1BP1L / Fold change vs veh, UHRF1BP1L / RFU, BET1 / Fold change vs veh, BET1 / RFU, CNOT2 / Fold change vs veh, CNOT2 / RFU, ZNF268 / Fold change vs veh, ZNF268 / Fold change vs veh, ZNF507 / RFU, DGCR2 / Fold change vs veh, DGCR2 / RFU, WDSUB1 / Fold change vs veh, WDSUB1 / Fold change vs veh, HSP90B1 /// MIR3652 / RFU, ADSS / Fold change vs veh, ADSS / RFU, GK / Fold change vs veh, GK / RFU, ZNF148 / Fold change vs veh, ZNF148 / RFU, TAF9 / Fold change vs veh, TAF9 / RFU, SLC1A5 / Fold change vs veh, SLC1A5 / RFU, SLMO2 / Fold change vs veh, SLMO2 / RFU, ABCC4 / Fold change vs veh, ABCC4 / RFU, LOC101060439 /// RAP1B / Fold change vs veh, LOC101060439 /// RAP1B / RFU, RFX7 / Fold change vs veh, RFX7 / RFU, GTPBP10 / Fold change vs veh, GTPBP10 / RFU, CNEP1R1 / Fold change vs veh, CNEP1R1 / RFU, BIVM-ERCC5 /// ERCC5 / Fold change vs veh, BIVM-ERCC5 /// ERCC5 / RFU, ILF3 / Fold change vs veh, ILF3 / RFU 11762660_at / Fold change /veh 11762660_at / RFU VCAN (11757783_s_at) / Fold change /veh VCAN (11757783_s_at) / RFU DDX43 (11728927_at) / Fold change /veh DDX43 (11728927_at) / RFU KRT8 (11758188_x_at) / Fold change /veh KRT8 (11758188_x_at) / RFU NKD1 (11759106_at) / Fold change /veh NKD1 (11759106_at) / RFU SRD5A1 (11742802_a_at) / Fold change /veh SRD5A1 (11742802_a_at) / RFU TPSAB1 /// TPSB2 (11721975_s_at) / Fold change /veh TPSAB1 /// TPSB2 (11721975_s_at) / RFU GSTM3 (11746129_a_at) / Fold change /veh GSTM3 (11746129_a_at) / RFU IL23R (11737362_x_at) / Fold change /veh IL23R (11737362_x_at) / RFU TMEM51 (11727254_a_at) / Fold change /veh TMEM51 (11727254_a_at) / RFU PIWIL2 (11732686_x_at) / Fold change /veh PIWIL2 (11732686_x_at) / RFU ORM1 (11744905_x_at) / Fold change /veh ORM1 (11744905_x_at) / RFU CCDC152 (11743942_at) / Fold change /veh CCDC152 (11743942_at) / RFU ECM1 (11717891_a_at) / Fold change /veh ECM1 (11717891_a_at) / RFU IL23R (11748794_a_at) / Fold change /veh IL23R (11748794_a_at) / RFU TNFAIP8L3 (11732012_x_at) / Fold change /veh TNFAIP8L3 (11732012_x_at) / RFU MBOAT4 (11741988_at) / Fold change /veh MBOAT4 (11741988_at) / RFU 11764193_at / Fold change /veh 11764193_at / RFU TMEM53 (11763286_at) / Fold change /veh TMEM53 (11763286_at) / RFU MAGEB2 (11727129_at) / Fold change /veh MAGEB2 (11727129_at) / RFU TMEM200A (11744735_a_at) / Fold change /veh TMEM200A (11744735_a_at) / RFU CCDC152 (11751479_a_at) / Fold change /veh CCDC152 (11751479_a_at) / RFU FAM211A (11726209_a_at) / Fold change /veh FAM211A (11726209_a_at) / RFU RGS16 (11746705_a_at) / Fold change /veh RGS16 (11746705_a_at) / RFU VCAN (11755009_s_at) / Fold change /veh VCAN (11755009_s_at) / RFU RHOB (11743442_s_at) / Fold change /veh RHOB (11743442_s_at) / RFU RGS16 (11720943_a_at) / Fold change /veh RGS16 (11720943_a_at) / RFU RGS16 (11720944_at) / Fold change /veh RGS16 (11720944_at) / RFU, VPS4B / Fold change vs veh, VPS4B / RFU, CREB1 / Fold change vs veh, CREB1 / RFU, DNAJC13 / Fold change vs veh, DNAJC13 / RFU, GNAQ / Fold change vs veh, GNAQ / RFU, CDK5R1 / Fold change vs veh, CDK5R1 / RFU, ZRANB3 / Fold change vs veh, ZRANB3 / RFU, CUL4A / Fold change vs veh, CUL4A / RFU, CCNY / Fold change vs veh, CCNY / RFU, UFL1 / Fold change vs veh, UFL1 / RFU, COG3 / Fold change vs veh, COG3 / RFU, DIAPH2 / Fold change vs veh, DIAPH2 / RFU, SKA2 / Fold change vs veh, SKA2 / RFU, AFF3 / Fold change vs veh, AFF3 / RFU, LMF1 / Fold change vs veh, LMF1 / RFU, IPO11 / Fold change vs veh, IPO11 / RFU, DFFB / Fold change vs veh, DFFB / RFU, FOXP1 / Fold change vs veh, FOXP1 / RFU, CARD8 / Fold change vs veh, CARD8 / RFU, STRN3 / Fold change vs veh, STRN3 / RFU, ADK / Fold change vs veh, ADK / RFU, RASSF2 / Fold change vs veh, RASSF2 / RFU, WIPF1 / Fold change vs veh, WIPF1 / RFU, LARP1B / Fold change vs veh, LARP1B / RFU, RASA1 / Fold change vs veh, RASA1 / RFU, RB1 / Fold change vs veh, RB1 / RFU, PPFIA1 / Fold change vs veh, PPFIA1 / RFU, MAT2A / Fold change vs veh, MAT2A / RFU, CCT5 / Fold change vs veh, CCT5 / RFU, WDR92 / Fold change vs veh, WDR92 / RFU, CUX1 / Fold change vs veh, CUX1 / RFU, TTC7A / Fold change vs veh, TTC7A / RFU, TMEM135 / Fold change vs veh, TMEM135 / RFU, DEPTOR / Fold change vs veh, DEPTOR / RFU, CPM / Fold change vs veh, CPM / RFU, DNAJB6 / Fold change vs veh, DNAJB6 / RFU, CACNA2D3 / Fold change vs veh, CACNA2D3 / RFU, DTX4 / Fold change vs veh, DTX4 / RFU, TFCP2 / Fold change vs veh, TFCP2 / RFU, GMCL1 /// GMCL1P1 / Fold change vs veh, GMCL1 /// GMCL1P1 / RFU, AEBP2 / Fold change vs veh, AEBP2 / RFU, SNHG1 /// SNORD22 /// SNORD25 /// SNORD26 /// SNORD27 /// SNORD28 /// SNORD29 /// SNORD31 / Fold change vs veh, SNHG1 /// SNORD22 /// SNORD25 /// SNORD26 /// SNORD27 /// SNORD28 /// SNORD29 /// SNORD31 / Fold change (Aza/veh), C12orf56 (ProbeSet 11735607_a_at) / Fold change (ACY-1035/veh), C12orf56 (ProbeSet 11735607_a_at) / Fold change (Aza/veh), FGFR1OP (ProbeSet 11751329_s_at) / Fold change (ACY-1035/veh), FGFR1OP (ProbeSet 11751329_s_at) / Fold change (Aza/veh), VPS36 (ProbeSet 11739960_a_at) / Fold change (ACY-1035/veh), VPS36 (ProbeSet 11739960_a_at) / RFU SYPL1 (11715823_x_at) / Fold change /veh SYPL1 (11715823_x_at) / RFU IGFBP7 (11715501_s_at) / Fold change /veh IGFBP7 (11715501_s_at) / RFU REEP3 (11722064_at) / Fold change /veh REEP3 (11722064_at) / RFU IGLL1 (11728026_x_at) / Fold change /veh IGLL1 (11728026_x_at): dose or concentration left out as unconfirmed
Conditions: MV-4-11 cells, 48 hours

Nc1ncn([C@@H]2O[C@H](CO)[C@@H](O)[C@H]2O)c(=O)n1 [azacitidine]
RFU FAM174B (11720279_a_at): 25.09 RFU
